According to PMC2855122 (Journal of immunology (Baltimore, Md. : 1950), 2009):

Tested on: HeLa-Kb-A3-47 cells
Experiment: Cell-surface HLA-A3 level after transfection with ER targeted precursors
Type: cell-based
Conditions: GAP-A3 staining (Figure 7B)

## RVCEKMALY [R-Y]
  Surface expression of HLA-A3 after ER targeted peptide: increased the surface expression of HLA-A3
